Laboratory results taken from publication PMC8518114, “Safety, tolerability and pharmacokinetics of emodepside, a potential novel treatment for onchocerciasis (river blindness), in healthy male subjects” (British Journal of Clinical Pharmacology, 2021).
Read-outs that look alike come from different tables or passages of the source.

Assay: Plasma pharmacokinetics of emodepside, multiple ascending dose (MAD) study
Type: in vivo, human
Settings: for AUC 0–24 /D / C max /D / AUC last /D / t ½ 0–24 (dominant half-life) / AUC 0–24 / Cmax: mean (CV%); for t ½ 0–24 (dominant half-life): Day 10, terminal slope of log concentration–time (0–24 hr) curve; for Cmax/Ctrough ratio: after the last dose on Day 10; for MRT: Day 1, mean (CV%); for AUC 0–24 / Cmax: HPLC-MS/MS; for CL/F: read-out: CL ss /F (converted); for Vd/F: read-out: V z /F; for half-life: read-out: Terminal t ½ (converted)
Procedure: Emodepside and placebo were supplied as a LSF and a standard immediate‐release (IR) tablet. The LSF was a 0.1% (w/v) solution containing 1 mg emodepside/mL. Conventional IR tablets containing emodepside in crystalline form were supplied in 2 dosage strengths, 5 and 20 mg, for the single ascending dose (SAD) study.
Blood samples (5 mL) were collected by venepuncture or via a cannula into EDTA tubes and immediately placed on ice. Samples were centrifuged at 1500 g for 10 minutes at 4°C. The plasma was aliquoted into 2 polypropylene tubes, which were stored at −20°C. Blood samples for PK analysis were taken at the following time points: • SAD: predose and 0.5, 1, 1.5, 2, 2.5, 3, 4, 5, 6, 8, 12, 24, 36, 48, 72, 96, 120, 144 and 168 hours, and 21 days postdose (cohort 1–9) or predose and 0.5, 1, 3, 6, 8, 12, 24, 36, 48, 72, 96, 120, 144 and 168 hours, and 10, 14, 18 and 21 days postdose (cohort 10). • Multiple ascending dose (MAD), as below: • on Day 1: predose and at 0.25, 0.5, 1, 1.5, 2, 2.5, 3, 4, 6, 8, 12 and 15 hours postdose • on Days 2–9: before the morning dose • on Day 10: before and at 0.25, 0.5, 1, 1.5, 2, 2.5, 3, 4, 6, 8, 12 and 15 hours • on Days 11, 12, 13, 14, 15, 18, 21, 24 and 30.
Emodepside plasma concentrations were determined by a validated high performance liquid chromatography–tandem mass spectrometry assay, using a Alltima C18 5 μm 150 mm x 2.1 mm column and an Applied Biosystems API4000 Turbo Ion Spray detector using positive ion mode. Analyst version 1.3.2 or 1.6.3 software, obtained from AB Sciex UK Ltd, Warrington, UK was used for chromatogram data analysis and quantitative calculations. Deuterated emodepside‐D16 was used as the internal standard. The lower limit of quantitation for emodepside in plasma was 1 ng/mL. Values below this limit were not used to calculate the PK parameters, except values that were below the limit of quantification before Cmax, which were set to zero.
The highest observed plasma concentration (Cmax) was determined directly from concentration–time data, as was the time to reach maximum plasma concentration (tmax). The area under the plasma concentration–time curve from time zero (predose) to the time of last quantifiable concentration (AUC0‐last) was calculated using the linear‐log trapezoidal rule. Elimination half‐life (t1/2) was calculated by the equation ln2/λz.
Statistical analyses were performed using SAS version 9.3 (Cary, NC, USA). Demographic data and baseline characteristics were listed and summarised. […] PK parameters were derived from plasma concentration vs. time data using a noncompartmental analysis in Phoenix WinNonlin version 7 (Certara Inc., Princeton, NJ, USA). Plasma concentration vs. time data and PK parameters were listed, and summarised by treatment, using descriptive statistics. Mean concentrations were calculated only if at least ⅔ of the individual concentrations were above the lower limit of quantification. […] Planned sampling times were used to summarise plasma‐concentration data; actual sampling times were used in the derivation of PK parameters.

[1] = 5 mg OD LSF fasting, Day 1, dose-normalised
[2] = 5 mg OD LSF fasting, Day 10, dose-normalised
[3] = 10 mg BID LSF fasting, Day 1, dose-normalised
[4] = 10 mg BID LSF fasting, Day 10, dose-normalised
[5] = 10 mg OD LSF fasting, Day 1, dose-normalised
[6] = 10 mg OD LSF fasting, Day 10, dose-normalised
[7] = human, plasma, po, 5 mg, 5 mg OD LSF fasting, Day 1, plasma
[8] = human, plasma, po, 5 mg, 5 mg OD LSF fasting, Day 10, mean (CV%)
[9] = human, plasma, po, 5 mg, 5 mg OD LSF fasting, Day 10, plasma
[10] = human, plasma, po, 10 mg, 10 mg BID LSF fasting, Day 1, plasma
[11] = human, plasma, po, 10 mg, 10 mg BID LSF fasting, Day 10, mean (CV%)
[12] = human, plasma, po, 10 mg, 10 mg BID LSF fasting, Day 10, plasma
[13] = human, plasma, po, 10 mg, 10 mg OD LSF fasting, Day 1, plasma
[14] = human, plasma, po, 10 mg, 10 mg OD LSF fasting, Day 10, mean (CV%)
[15] = human, plasma, po, 10 mg, 10 mg OD LSF fasting, Day 10, plasma

With `CC(C)C[C@H]1C(=O)O[C@H](Cc2ccc(N3CCOCC3)cc2)C(=O)N(C)[C@@H](CC(C)C)C(=O)O[C@H](C)C(=O)N(C)[C@@H](CC(C)C)C(=O)O[C@H](Cc2ccc(N3CCOCC3)cc2)C(=O)N(C)[C@@H](CC(C)C)C(=O)O[C@H](C)C(=O)N1C` [emodepside] the “AUC 0–24 /D” value [1] was 115 (19.7) [h.ng/mL]/mg, the “C max /D” value [1] was 18.8 (17.8) [ng/mL]/mg and the Tmax (5 mg OD LSF fasting, Day 1, median (range)) was 1.00 (1.00–1.07) h. The “AUC 0–24 /D” value [2] was 338 (31.3) [h.ng/mL]/mg, the “AUC last /D” value [2] was 3872 (29.9) [h.ng/mL]/mg and the “C max /D” value [2] was 29.9 (17.9) [ng/mL]/mg. The λ z (5 mg OD LSF fasting, Day 10, mean (CV%)) was 0.00166 (42.6) 1/h, the “Terminal t ½” value (5 mg OD LSF fasting, Day 10, mean (CV%), geometric mean) was 419 (42.6) h and the Tmax (5 mg OD LSF fasting, Day 10, median (range)) was 1.00 (1.00–1.50) h. The “t ½ 0–24 (dominant half-life)” value (5 mg OD LSF fasting) was 26.9 (52.4) h, the “AUC 0–24 /D” value [3] was 71.4 (26.5) [h.ng/mL]/mg and the “C max /D” value [3] was 16.0 (20.4) [ng/mL]/mg. The Tmax (10 mg BID LSF fasting, Day 1, median (range)) was 1.00 (1.00–1.58) h, the “AUC 0–24 /D” value [4] was 490 (35.8) [h.ng/mL]/mg and the “AUC last /D” value [4] was 5955 (29.1) [h.ng/mL]/mg. The “C max /D” value [4] was 34.9 (27.1) [ng/mL]/mg, the λ z (10 mg BID LSF fasting, Day 10, mean (CV%)) was 0.00137 (56.9) 1/h and the “t ½ 0–24 (dominant half-life)” value (10 mg BID LSF fasting) was 33.2 (55.0) h. The Cmax/Ctrough ratio (10 mg BID LSF) was 1.9, the “AUC 0–24 /D” value [5] was 113 (32.7) [h.ng/mL]/mg and the “C max /D” value [5] was 18.6 (21.3) [ng/mL]/mg. For the same molecule, the “AUC 0–24 /D” value [6] was 349 (44.2) [h.ng/mL]/mg, the “AUC last /D” value [6] was 4065 (43.5) [h.ng/mL]/mg and the “C max /D” value [6] was 28.7 (39.7) [ng/mL]/mg. For the same molecule, the λ z (10 mg OD LSF fasting, Day 10, mean (CV%)) was 0.00154 (30.6) 1/h, the Tmax (10 mg OD LSF fasting, Day 10, median (range)) was 1.25 (1.00–2.00) h and the “t ½ 0–24 (dominant half-life)” value (10 mg OD LSF fasting) was 18.4 (30.0) h. For the same molecule, the Cmax/Ctrough ratio (10 mg OD LSF) was 3.0, the “Emodepside levels at the final sampling timepoint” value (507 hours after the last morning dose, LLOQ 1 ng/mL) was “still quantifiable in all subjects” and the “Geometric mean Cmax on Day 10, 10 mg BID group vs 10 mg OD group” value (LSF) was 1.2 fold. The MRT (human, plasma, po, 5 mg, 5 mg OD LSF fasting) was 7.28 h, the AUC 0–24 [7] was 574 ng·h/mL and the Cmax [7] was 93.8 ng/mL. The CL/F [8] was 49.3 mL/min, the Vd/F [8] was 1790 L and the AUC 0–24 [9] was 1690 ng·h/mL. For the same molecule, the Cmax [9] was 149 ng/mL, the MRT (human, plasma, po, 10 mg, 10 mg BID LSF fasting) was 10.8 h and the AUC 0–24 [10] was 1430 ng·h/mL. The Cmax [10] was 160 ng/mL, the half-life (human, plasma, po, 10 mg, 10 mg BID LSF fasting, Day 10, mean (CV%), geometric mean) was 508 h and the CL/F [11] was 59.3 mL/min. It also gave a Vd/F [11] of 2610 L, a Tmax (human, plasma, po, 10 mg, 10 mg BID LSF fasting, Day 10, median (range), read-out: t max) of 1.5 h and an AUC 0–24 [12] of 4900 ng·h/mL. It also gave a Cmax [12] of 349 ng/mL, an MRT (human, plasma, po, 10 mg, 10 mg OD LSF fasting) of 7 h and a Tmax (human, plasma, po, 10 mg, 10 mg OD LSF fasting, Day 1, median (range), read-out: t max) of 1.25 h. The AUC 0–24 [13] was 1140 ng·h/mL, the Cmax [13] was 186 ng/mL and the half-life (human, plasma, po, 10 mg, 10 mg OD LSF fasting, Day 10, mean (CV%), geometric mean) was 450 h. For the same molecule, the CL/F [14] was 47.8 mL/min, the Vd/F [14] was 1860 L and the AUC 0–24 [15] was 3490 ng·h/mL. It also gave a Cmax [15] of 287 ng/mL.
